From patent publication US10807992B2, “Single enantiomer antiparasitic compounds” (priority 2017, dated 2020)

Legend:
[1] = system: Ctenocephalides felis; test: In vitro ingestion activity against fleas (artificial feeding, bovine blood); conditions: for mortality at 0.003 ppm: Trial 3, dose 0.003 ppm; for mortality at 0.012 ppm: Trial 3, dose 0.012 ppm; for mortality at 0.049 ppm: Trial 3, dose 0.049 ppm; for mortality at 0.2 ppm: Trial 3, dose 0.20 ppm; for mortality at 0.78 ppm: Trial 3, dose 0.78 ppm; for mortality at 3.125 ppm: Trial 3, dose 3.125 ppm; for mortality at 12.5 ppm: Trial 3, dose 12.5 ppm; for mortality at 50 ppm: Trial 3, dose 50 ppm
Experimental: Ctenocephalides felis (Avista Pharma, Inc., RTP, NC), 1-7days post hatch, held in an environmental chamber at 24° C., 85% humidity.
For flea ingestion tests, serial dilutions of the compound stock were performed using DMSO to achieve the desired range for EC50 and EC90 determination. An aliquot of each compound dilution was added to organic bovine blood with a final DMSO concentration of 0.5% and placed in an artificial feeding container.
Compounds tested were C1 racemate, the C1 (R) enantiomer, and the C1 (S) enantiomer. For Trial 3, the C1 (R) enantiomer and the C1 (S) enantiomer were further chiral purified to achieve >99% purity.
For both contact and ingestion assays, ten newly emerged unfed adult fleas, 0-7 days old Ctenocephalides felis, from a laboratory colony, were aspirated into each vial or cage. The test vials for contact assays were held in an environmental chamber at 24° C., 80% humidity with light/dark cycles (12 hours each). The cages for flea ingestion assays were held in a temperature-controlled artificial feeding apparatus to allow continual access to organic bovine blood containing the desired concentration of compound. Fresh aliquots of compound-spiked bovine blood were provided daily for the duration of the study.
Fleas were evaluated for percent mortality at various time points between 2 hours and 48 hours post infestation. Fleas showing normal movement and/or jumping ability were considered viable and those showing no movement after tapping the vials were scored as dead.

[2] = system: Rhipicephalus sanguineus; test: In vitro contact activity against adult ticks (coated vial), R. sanguineus; conditions: for mortality at 0.006 µM: Trial 3, dose 0.006 μM; for mortality at 0.024 µM: Trial 3, dose 0.024 μM; for mortality at 0.098 µM: Trial 3, dose 0.098 μM; for mortality at 0.39 µM: Trial 3, dose 0.39 μM; for mortality at 1.56 µM: Trial 3, dose 1.56 μM; for mortality at 6.25 µM: Trial 3, dose 6.25 μM; for mortality at 25 µM: Trial 3, dose 25 μM; for mortality at 100 µM: Trial 3, dose 100 μM
Experimental: Rhipicephalus sanguineus, Dermacentor variabilis, Amblyomma americanum, (Ecto Services, Inc., Henderson, N.C.) and Ixodes scapularis (Oklahoma State University, Stillwater, Okla.) aged between 2-4 weeks post molt were held in an environmental chamber at 24° C., 80% humidity with 12-hour light/dark cycles.
For tick assays, vial caps were pre-drilled with a single hole in the center of each cap to allow air exchange. A filter paper (Whatman Grade 540 2.1 cm) was placed in the lid of each vial. An aliquot from each compound stock was added to an acetone/triton solution to achieve the desired top doses for the study. Serial dilutions were conducted from the top dose (i.e. 100 ppm) to achieve the desired titration range for EC50 and EC90 determination. For R. sanguineus, D. variabilis, and A. americanum, the final DMSO concentration in each test vial was 0.5%. For I. scapularis, compounds were solubilized directly in an acetone/triton solution due to I. scapularis' sensitivity to DMSO. A 459 μL aliquot of each compound formulation was transferred to a vial containing a Whatman Grade 540 2.1 cm filter paper. Vials were immediately placed on an unheated roller unit to allow for an even coating of the vial walls. After vials were coated, 41 μL of each compound formulation was added to the filter paper embedded in each vial cap. Each cap was allowed to dry. The vials were loosely capped and allowed to dry for a minimum of four hours in a chemical fume hood.
Compounds tested were: the C1 racemate, C1 (R) enantiomer, and the C1 (S) enantiomer. For Trial 3, the C1 (R) enantiomer and the C1 (S) enantiomer were further chiral purified to achieve >99% purity.
Ten adult ticks were added to each vial and held at 24° C., 80% humidity with 12-hour light/dark cycles. Adult ticks were assessed for percent mortality at various time points between 2 hours and 48 hours post infestation. Ticks were stimulated on a heated roller unit and evaluated. Ticks showing no movement, or very slow and uncoordinated movement were noted as dead.

O=C(CC(F)(F)F)N1CC2(C1)OCc1cc(C3=NSC(c4cc(Cl)c(F)c(Cl)c4)(C(F)(F)F)C3)ccc12 (racemic) [C1 racemate, 1-[6-[5-(3,5-dichloro-4-fluoro-phenyl)-5-(trifluoromethyl)-4H-isothiazol-3-yl]spiro[1H-isobenzofuran-3,3′-azetidine]-1′-yl]-3,3,3-trifluoro-propan-1-one]
50%: mortality at 6.25 µM ([2]; 6 h, Rep1) | mortality at 1.56 µM ([2]; 12 h, Rep2)
70%: mortality at 0.78 ppm ([1]; 6 h, Rep1) | mortality at 3.125 ppm ([1]; 6 h, Rep2) | mortality at 50 ppm ([1]; 6 h, Rep2)
30%: mortality at 0.2 ppm ([1]; 24 h, Rep1) | mortality at 25 µM ([2]; 2 h, Rep1)
80%: mortality at 0.2 ppm ([1]; 24 h, Rep2) | mortality at 50 ppm ([1]; 24 h, Rep2) | mortality at 0.2 ppm ([1]; 48 h, Rep1) | mortality at 0.2 ppm ([1]; 48 h, Rep2) | mortality at 6.25 µM ([2]; 12 h, Rep1) | mortality at 6.25 µM ([2]; 12 h, Rep2)
90%: mortality at 0.78 ppm ([1]; 6 h, Rep2) | mortality at 3.125 ppm ([1]; 6 h, Rep1) | mortality at 12.5 ppm ([1]; 6 h, Rep1) | mortality at 50 ppm ([1]; 6 h, Rep1) | mortality at 0.78 ppm ([1]; 24 h, Rep1) | mortality at 0.78 ppm ([1]; 24 h, Rep2) | mortality at 3.125 ppm ([1]; 24 h, Rep1) | mortality at 3.125 ppm ([1]; 24 h, Rep2) | mortality at 12.5 ppm ([1]; 24 h, Rep1) | mortality at 50 ppm ([1]; 24 h, Rep1) | mortality at 0.78 ppm ([1]; 48 h, Rep1) | mortality at 3.125 ppm ([1]; 48 h, Rep1) | mortality at 12.5 ppm ([1]; 48 h, Rep1) | mortality at 50 ppm ([1]; 48 h, Rep1) | mortality at 50 ppm ([1]; 48 h, Rep2) | mortality at 25 µM ([2]; 6 h, Rep1) | mortality at 1.56 µM ([2]; 12 h, Rep1) | mortality at 25 µM ([2]; 12 h, Rep1)
100%: mortality at 12.5 ppm ([1]; 6 h, Rep2) | mortality at 12.5 ppm ([1]; 24 h, Rep2) | mortality at 0.78 ppm ([1]; 48 h, Rep2) | mortality at 3.125 ppm ([1]; 48 h, Rep2) | mortality at 12.5 ppm ([1]; 48 h, Rep2) | mortality at 25 µM ([2]; 6 h, Rep2) | mortality at 100 µM ([2]; 6 h, Rep1) | mortality at 100 µM ([2]; 6 h, Rep2) | mortality at 25 µM ([2]; 12 h, Rep2) | mortality at 100 µM ([2]; 12 h, Rep1) | mortality at 100 µM ([2]; 12 h, Rep2)
20%: mortality at 6.25 µM ([2]; 6 h, Rep2)
0%: mortality at 0.003 ppm ([1]; 6 h, Rep1) | mortality at 0.003 ppm ([1]; 6 h, Rep2) | mortality at 0.012 ppm ([1]; 6 h, Rep1) | mortality at 0.012 ppm ([1]; 6 h, Rep2) | mortality at 0.049 ppm ([1]; 6 h, Rep1) | mortality at 0.049 ppm ([1]; 6 h, Rep2) | mortality at 0.003 ppm ([1]; 24 h, Rep1) | mortality at 0.003 ppm ([1]; 24 h, Rep2) | mortality at 0.012 ppm ([1]; 24 h, Rep1) | mortality at 0.012 ppm ([1]; 24 h, Rep2) | mortality at 0.049 ppm ([1]; 24 h, Rep1) | mortality at 0.003 ppm ([1]; 48 h, Rep1) | mortality at 0.003 ppm ([1]; 48 h, Rep2) | mortality at 0.012 ppm ([1]; 48 h, Rep1) | mortality at 0.012 ppm ([1]; 48 h, Rep2) | mortality at 0.006 µM ([2]; 2 h, Rep1) | mortality at 0.006 µM ([2]; 2 h, Rep2) | mortality at 0.024 µM ([2]; 2 h, Rep1) | mortality at 0.024 µM ([2]; 2 h, Rep2) | mortality at 0.098 µM ([2]; 2 h, Rep1) | mortality at 0.098 µM ([2]; 2 h, Rep2) | mortality at 0.39 µM ([2]; 2 h, Rep1) | mortality at 0.39 µM ([2]; 2 h, Rep2) | mortality at 1.56 µM ([2]; 2 h, Rep1) | mortality at 1.56 µM ([2]; 2 h, Rep2) | mortality at 6.25 µM ([2]; 2 h, Rep1) | mortality at 6.25 µM ([2]; 2 h, Rep2) | mortality at 100 µM ([2]; 2 h, Rep2) | mortality at 0.006 µM ([2]; 6 h, Rep1) | mortality at 0.006 µM ([2]; 6 h, Rep2) | mortality at 0.024 µM ([2]; 6 h, Rep1) | mortality at 0.024 µM ([2]; 6 h, Rep2) | mortality at 0.098 µM ([2]; 6 h, Rep1) | mortality at 0.098 µM ([2]; 6 h, Rep2) | mortality at 0.39 µM ([2]; 6 h, Rep2) | mortality at 1.56 µM ([2]; 6 h, Rep1) | mortality at 1.56 µM ([2]; 6 h, Rep2) | mortality at 0.006 µM ([2]; 12 h, Rep1) | mortality at 0.006 µM ([2]; 12 h, Rep2) | mortality at 0.024 µM ([2]; 12 h, Rep1) | mortality at 0.024 µM ([2]; 12 h, Rep2) | mortality at 0.098 µM ([2]; 12 h, Rep1) | mortality at 0.098 µM ([2]; 12 h, Rep2) | mortality at 0.39 µM ([2]; 12 h, Rep2)
10%: mortality at 0.2 ppm ([1]; 6 h, Rep1) | mortality at 0.2 ppm ([1]; 6 h, Rep2) | mortality at 0.049 ppm ([1]; 24 h, Rep2) | mortality at 0.049 ppm ([1]; 48 h, Rep1) | mortality at 0.049 ppm ([1]; 48 h, Rep2) | mortality at 25 µM ([2]; 2 h, Rep2) | mortality at 100 µM ([2]; 2 h, Rep1) | mortality at 0.39 µM ([2]; 6 h, Rep1) | mortality at 0.39 µM ([2]; 12 h, Rep1)
